Assay results taken from PubChem BioAssay (NCI).
Several values for one entry are separate records, joined by “and”; a condition that tells them apart may be missing. Equal values may be shown once.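 Compound exposure: 48 hours, 5 concentrations, 96-well plates. Abbreviation: GI50, concentration required for 50% inhibition of growth. Definition used: TGI = concentration required for complete inhibition of growth.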

Legend:
Assay in all cases: NCI anticancer screen, dose series, 48 h
HCT-116 colon = test system: HCT-116 colon
K-562 leukemia = test system: K-562 leukemia
KM12 colon = test system: KM12 colon
NCI-H460 lung = test system: NCI-H460 lung
SF-295 CNS = test system: SF-295 CNS
SK-MEL-2 melanoma = test system: SK-MEL-2 melanoma
SK-MEL-28 melanoma = test system: SK-MEL-28 melanoma
SK-OV-3 ovarian = test system: SK-OV-3 ovarian
U251 CNS = test system: U251 CNS
M14 melanoma = test system: M14 melanoma

SMILES	GI50 (HCT-116 colon)	TGI (HCT-116 colon)	GI50 (K-562 leukemia)	TGI (K-562 leukemia)	GI50 (KM12 colon)	TGI (KM12 colon)	GI50 (NCI-H460 lung)	TGI (NCI-H460 lung)	GI50 (SF-295 CNS)	TGI (SF-295 CNS)	GI50 (SK-MEL-2 melanoma)	TGI (SK-MEL-2 melanoma)	GI50 (SK-MEL-28 melanoma)	TGI (SK-MEL-28 melanoma)	GI50 (SK-OV-3 ovarian)	TGI (SK-OV-3 ovarian)	GI50 (U251 CNS)	TGI (U251 CNS)	TGI (M14 melanoma)	GI50 (M14 melanoma)
C/C(=N\Nc1ccc(Cl)cn1)c1ccccn1	20.1 nM	> 33.8 µM	29 nM	> 100 µM	410 nM	18.1 µM	268 nM	11.2 µM	262 nM	5.18 µM	0.72 µM	> 100 µM	250 nM	> 100 µM	98 nM	26.9 µM	218 nM	> 100 µM		
CC(C)CCCC(=O)CCCCCCC(=O)CCN(O)C(=O)C(N)CO (centres undefined)		38 µM		> 100 µM		35.9 µM				36.3 µM		39.5 µM		41.5 µM		35.6 µM		65 µM	61.5 µM	
COc1cc2c(c(OC)c1)C1(CC(CC#N)C2)SCCS1 (centres undefined)		> 100 µM		> 100 µM		> 100 µM		> 100 µM				> 100 µM		> 100 µM		> 100 µM		> 100 µM	> 100 µM	
CCOC(=O)CCn1[nH]c(=O)c(Cl)c(Cl)c1=O		> 100 µM		> 100 µM				> 100 µM		> 100 µM		> 100 µM		> 100 µM		> 100 µM		> 100 µM	> 100 µM	
C/C=C(\C)CC/C=C/CO[Si](C)(C)C(C)(C)C		> 100 µM		> 100 µM		> 100 µM		> 100 µM		> 100 µM		> 100 µM		> 100 µM		> 100 µM			> 100 µM	
NCCCn1c2c(c3ccc([N+](=O)[O-])cc3c1=O)C(=O)c1cc(Br)ccc1-2	185 nM and 48.4 nM	0.348 µM and 0.207 µM	8.13 nM	0.264 µM	83.4 nM and 18.5 nM	0.353 µM and 0.191 µM	0.746 nM	0.113 µM	163 nM				71.5 nM		348 nM	2.03 µM	20.2 nM	0.111 µM and 0.014 µM	0.435 µM and 0.165 µM	185 nM
CCOc1ccc2c(c1)[n+]([O-])c(-c1nc3ccccc3s1)c(N)[n+]2[O-]				> 100 µM		> 100 µM		> 100 µM		> 100 µM		> 100 µM		> 100 µM		> 100 µM		> 100 µM	> 100 µM	
COc1ccc2nc3cc(Cl)ccc3c(NCCN)c2c1					1670 nM	3.46 µM					14.5 µM	31.2 µM			1810 nM	3.26 µM	1710 nM	3.09 µM	3.44 µM	1820 nM
